# Reference: the NIST ThermoML archive (doi:10.1016/j.fluid.2013.12.020)
# Numbers after ± are expanded uncertainties.
# Settings: 101.33 kPa, Liquid; for viscosity: Falling or rolling sphere viscometry; for mass density: Vibrating tube method
viscosity (293.15 K),mass density (293.15 K),viscosity (303.15 K),mass density (303.15 K),viscosity (313.15 K),mass density (313.15 K),viscosity (323.15 K),mass density (323.15 K),viscosity (333.15 K),mass density (333.15 K),Compound
23.76 ± 0.98 mPa·s,1015.96 ± 0.3 kg/m3,14.85 ± 0.61 mPa·s,1008.05 ± 0.29 kg/m3,9.943 ± 0.41 mPa·s,1000.09 ± 0.29 kg/m3,6.984 ± 0.29 mPa·s,992.07 ± 0.29 kg/m3,5.108 ± 0.21 mPa·s,983.98 ± 0.29 kg/m3,NCCO [2-aminoethan-1-ol]
48.53 ± 2.1 mPa·s,1065.4 ± 2.2 kg/m3,31.73 ± 1.4 mPa·s,1059.09 ± 2.1 kg/m3,22.09 ± 0.96 mPa·s,1052.83 ± 2.1 kg/m3,16.17 ± 0.7 mPa·s,1046.62 ± 2.1 kg/m3,12.35 ± 0.54 mPa·s,1040.48 ± 2 kg/m3,CCCCn1cc[n+](C)c1.N#CN=C=[N-] [1-butyl-3-methylimidazolium dicyanamide]

Compound,viscosity (293.15 K),mass density (293.15 K),viscosity (303.15 K),mass density (303.15 K),viscosity (313.15 K),mass density (313.15 K),viscosity (323.15 K),mass density (323.15 K),viscosity (333.15 K),mass density (333.15 K)
Cn1cc[n+](CCO)c1.N#C[N-]C#N [3-(2-hydroxyethyl)-1-methyl-1H-imidazol-3-ium dicyanoazanide],121.5 ± 6.2 mPa·s,1192.85 ± 2.7 kg/m3,68.67 ± 3 mPa·s,1186.37 ± 2.7 kg/m3,42.93 ± 1.9 mPa·s,1179.92 ± 2.7 kg/m3,28.96 ± 1.3 mPa·s,1173.52 ± 2.6 kg/m3,20.67 ± 0.9 mPa·s,1167.18 ± 2.6 kg/m3
